Results on nine molecules are retold here after patent publication US10167272B2, “Muscarinic agonists” (Heptares Therapeutics Limited, priority 2015, dated 2019).

Read-outs that look alike come from different tables or passages of the source. Bounds are passed on as bounds.

One assay deals with rats. The assay is described as follows: d-amphetamine-induced hyperactivity in rats. It counts as in vivo, rat. As to conditions: positive control dose, previously observed. As for the experimental part:
Effect of a Novel Test Compound and Xanomeline on d-Amphetamine-Induced Hyperactivity in Rats
The aim of the study is to examine the effect of a novel test compound on d-amphetamine induced hyperactivity in rats. Schizophrenia is a complex multifactorial disease that cannot be fully represented by a single experimental procedure. Antipsychotic-like behaviour was assessed in rats by the inhibition of hyperactivity (or hyperlocomotion) elicited by d-amphetamine. This procedure is sensitive to clinically relevant dopamine receptor antagonists and is therefore considered suitable for comparing muscarinic agonists that influence dopaminergic signalling. […] Statistical analysis typically involved three-way analysis of covariance or robust regression with treatment, day and rack as factors and activity during the 30 minutes prior to treatment as a covariate, followed by appropriate multiple comparison tests. A P value of <0.05 was considered statistically significant and is marked accordingly in all subsequent figures.

The target in assay [1] is T1, human muscarinic M1 receptor (Homo sapiens, UniProt P11229).
T1 sequence (P11229 1-460): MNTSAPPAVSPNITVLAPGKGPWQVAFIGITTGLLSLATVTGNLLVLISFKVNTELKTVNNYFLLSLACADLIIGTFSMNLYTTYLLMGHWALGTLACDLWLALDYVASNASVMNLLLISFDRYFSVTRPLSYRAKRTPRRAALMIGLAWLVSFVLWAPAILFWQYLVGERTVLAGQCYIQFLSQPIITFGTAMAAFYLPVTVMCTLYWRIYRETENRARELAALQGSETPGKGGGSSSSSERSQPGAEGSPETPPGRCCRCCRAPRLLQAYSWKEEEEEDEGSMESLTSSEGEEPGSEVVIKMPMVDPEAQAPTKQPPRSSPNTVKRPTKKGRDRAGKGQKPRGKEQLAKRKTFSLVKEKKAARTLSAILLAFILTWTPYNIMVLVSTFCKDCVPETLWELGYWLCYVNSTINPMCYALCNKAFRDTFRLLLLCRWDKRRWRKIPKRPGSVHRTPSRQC
The assay is described as follows: Alphascreen Surefire phospho-ERK1/2 functional assay, M1. The class given is cell-based. As to conditions: phospho-ERK1/2; for EC50 / % Emax cf. ACh (M1): CHO cells stably expressing human M1; for EC50: read-out: pEC50 M1 (converted); for % Emax cf. ACh (M1) / Emax: relative to ACh; for Emax: CHO, read-out: % Emax cf. ACh (M1), CHO cells stably expressing human M1. Put shortly:
(§1)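 CHO cells stably expressing human M1, M2 or M3 receptor, serum-starved overnight, were stimulated with agonist for 5 min at 37 °C. Cells were then lysed and ERK1/2 phosphorylation detected by AlphaScreen SureFire.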
For orientation: In Alpha technology, singlet oxygen from a donor bead excites a nearby acceptor bead.

For assay [2], the target named is T2, human muscarinic M2 receptor (Homo sapiens, UniProt P08172).
T2 sequence (P08172 1-466): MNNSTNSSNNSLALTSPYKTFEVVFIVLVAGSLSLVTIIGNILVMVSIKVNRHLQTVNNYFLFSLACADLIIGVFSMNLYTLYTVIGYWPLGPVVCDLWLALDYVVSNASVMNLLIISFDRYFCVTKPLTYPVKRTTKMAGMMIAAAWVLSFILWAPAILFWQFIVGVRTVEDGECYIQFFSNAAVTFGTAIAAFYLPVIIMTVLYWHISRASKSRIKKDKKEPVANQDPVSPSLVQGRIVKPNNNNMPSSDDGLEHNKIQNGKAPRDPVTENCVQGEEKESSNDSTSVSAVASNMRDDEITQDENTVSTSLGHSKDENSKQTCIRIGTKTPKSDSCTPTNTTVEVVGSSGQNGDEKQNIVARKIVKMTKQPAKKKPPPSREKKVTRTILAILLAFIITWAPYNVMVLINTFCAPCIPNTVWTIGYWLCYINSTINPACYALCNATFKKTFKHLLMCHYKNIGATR
The assay can be described thus: Alphascreen Surefire phospho-ERK1/2 functional assay, M2. The class given is cell-based. As to conditions: for EC50: CHO cells stably expressing human M2, read-out: pEC50 M2 (converted); for Emax: CHO, read-out: % Emax cf. ACh (M2), CHO cells stably expressing human M2, relative to ACh. Put shortly:
as §1

Assay [3] deals with T3, human muscarinic M3 receptor (Homo sapiens, UniProt P20309).
T3 construct: expressed in transfected cells
T3 sequence (P20309 whole entry): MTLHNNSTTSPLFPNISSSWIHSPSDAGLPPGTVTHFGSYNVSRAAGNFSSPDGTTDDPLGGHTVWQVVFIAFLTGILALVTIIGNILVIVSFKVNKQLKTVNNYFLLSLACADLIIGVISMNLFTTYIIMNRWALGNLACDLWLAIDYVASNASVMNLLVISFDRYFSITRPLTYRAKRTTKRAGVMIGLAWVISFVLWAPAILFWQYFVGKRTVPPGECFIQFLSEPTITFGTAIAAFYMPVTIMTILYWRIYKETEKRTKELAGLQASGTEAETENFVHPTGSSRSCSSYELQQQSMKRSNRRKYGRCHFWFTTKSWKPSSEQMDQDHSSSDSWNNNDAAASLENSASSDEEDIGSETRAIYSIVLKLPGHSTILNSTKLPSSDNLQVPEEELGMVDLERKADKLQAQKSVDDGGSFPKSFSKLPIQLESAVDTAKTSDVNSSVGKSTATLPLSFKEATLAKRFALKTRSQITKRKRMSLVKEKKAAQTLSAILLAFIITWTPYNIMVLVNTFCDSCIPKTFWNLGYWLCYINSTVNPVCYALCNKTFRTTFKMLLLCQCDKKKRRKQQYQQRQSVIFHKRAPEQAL
The assay is described as follows: Alphascreen Surefire phospho-ERK1/2 functional assay, M3. The class given is cell-based. The settings on record: phospho-ERK1/2; for EC50: CHO cells stably expressing human M3, read-out: pEC50 M3 (converted); for Emax: CHO, read-out: % Emax cf. ACh (M3), CHO cells stably expressing human M3, relative to ACh. Put shortly:
as §1

The target in assay [4] is T4, human muscarinic M4 receptor (Homo sapiens, UniProt P08173).
T4 construct: expressed in transfected cells
T4 sequence (P08173 1-479): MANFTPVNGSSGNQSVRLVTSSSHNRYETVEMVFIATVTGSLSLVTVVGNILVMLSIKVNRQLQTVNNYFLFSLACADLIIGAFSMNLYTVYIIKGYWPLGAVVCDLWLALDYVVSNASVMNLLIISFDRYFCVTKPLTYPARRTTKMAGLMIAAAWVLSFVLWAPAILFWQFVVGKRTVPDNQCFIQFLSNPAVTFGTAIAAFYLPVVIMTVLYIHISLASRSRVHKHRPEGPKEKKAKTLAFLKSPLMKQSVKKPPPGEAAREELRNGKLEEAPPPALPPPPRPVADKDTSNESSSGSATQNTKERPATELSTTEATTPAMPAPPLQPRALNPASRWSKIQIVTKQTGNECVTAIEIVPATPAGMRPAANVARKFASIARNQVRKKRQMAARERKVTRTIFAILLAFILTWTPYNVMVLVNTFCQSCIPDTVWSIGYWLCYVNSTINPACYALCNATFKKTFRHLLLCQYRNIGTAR
The assay can be described thus: Alphascreen Surefire phospho-ERK1/2 functional assay, M4. The class given is cell-based. The settings on record: for % Emax cf. ACh (M4) / Emax: relative to ACh; for Emax: CHO, read-out: % Emax cf. ACh (M4), CHO cells stably expressing human M4.

[5] abbreviates: CHO cells stably expressing human M4, phospho-ERK1/2, read-out: pEC50 M4 (converted).
[6] abbreviates: CHO cells stably expressing human M4, phospho-ERK1/2.

Turning to `CCCCCCOc1nsnc1C1=CCCN(C)C1` [xanomeline], in the assay on rats, the d-amphetamine induced hyperactivity result is “significantly reduce”.
For the molecule `CCOC(=O)N1CCC2(CC(N3CCC(N(CC4(OC)CCC4)C(C)=O)CC3)C2)C1` (single isomer, unassigned) [2-30 Isomer 2], the EC50 is 0.1 µM in assay [1], 5.01 µM in assay [2], more than 20 µM in assay [3] and 0.0794 µM in assay [4] (setting [5]). The “% Emax cf. ACh (M1)” value in assay [1] was 104%. Besides, the values for the maximum response (Emax) in assay [2] and in assay [3] were 42% and 26%, respectively. For the same molecule, the “% Emax cf. ACh (M4)” value in assay [4] (setting [6]) is 96%.
Regarding `CCOC(=O)N1CC2(CCC(N3CCC(N(CC)C(C)=O)CC3)C2)C1` (single isomer, unassigned) [3-3 Isomer 2], the EC50 in assay [1] was more than 20 µM; in assay [2], more than 20 µM; in assay [3], more than 20 µM; in assay [4] (setting [5]) it was 0.00398 µM. Besides, the Emax (in general, the maximal effect, on the per cent scale that the assay sets) in assay [1] was 18%; in assay [2], 3%; in assay [3], 21%; in assay [4] (phospho-ERK1/2) it was 93%.
Turning to `CCOC(=O)N1CCC2(CC(N3CCC(N(CC)CC(F)(F)F)CC3)C2)C1` (single isomer, unassigned) [2-7 Isomer 2], the EC50 in assay [1] is 0.0794 µM; in assay [2], more than 20 µM; in assay [3], more than 20 µM; in assay [4] (setting [5]), 0.0126 µM. The Emax is 120% in assay [1], 16% in assay [2], 10% in assay [3] and 118% in assay [4] (phospho-ERK1/2).
As to `CCOC(=O)N1CCC2(CC(N3CCC(N(CC(C)(C)OC)C(C)=O)CC3)C2)C1` (single isomer, unassigned) [2-29 Isomer 2], the EC50 was 0.2 µM in assay [1], 1.26 µM in assay [2], more than 20 µM in assay [3] and 0.158 µM in assay [4] (setting [5]). In assay [1], the “% Emax cf. ACh (M1)” value was determined as 99%. In addition, the Emax in assay [2] is 29%; in assay [3] it was 73%. For the same molecule, the “% Emax cf. ACh (M4)” value in assay [4] (setting [6]) is recorded as 84%.
Consider `CCOC(=O)N1CCC2(CC(N3CCC(N(CC)CC(F)F)CC3)C2)C1` (single isomer, unassigned) [2-46 Isomer 2], for which the EC50 in assay [1] was 0.316 µM; in assay [2] it was more than 20 µM; in assay [3], more than 20 µM; in assay [4] (pEC50 M4), 0.00794 µM. For the same molecule, the Emax in assay [1] was determined as 63%; in assay [2] it was 5%; in assay [3], 12%; in assay [4] (phospho-ERK1/2), 98%.
In the case of `CCOC(=O)N1CCC2(CC(N3CCC(N(CCF)Cc4cnco4)CC3)C2)C1` (single isomer, unassigned) [2-61 Isomer 2], the EC50 in assay [1] is more than 20 µM; in assay [2] it was more than 20 µM; in assay [3], more than 20 µM; in assay [4] (pEC50 M4), 0.0398 µM. The maximal effect (Emax) in assay [1] came out at 21%; in assay [2], 52%; in assay [3] it was 65%; in assay [4] (phospho-ERK1/2) it was 101%.
As for `CCOC(=O)N1CCC2(CC(N3CCC(N(C(C)=O)C4CCC4)CC3)C2)C1` (single isomer, unassigned) [2-6 Isomer 2], the EC50 was 0.1 µM in assay [1], more than 20 µM in assay [2], more than 20 µM in assay [3] and 0.0316 µM in assay [4] (setting [5]). In addition, the Emax in assay [1] was 101%; in assay [2] it was 7%; in assay [3], 14%; in assay [4] (phospho-ERK1/2), 98%.
With `CCOC(=O)N1CCC2(CC(N3CCC(N(C(=O)OC)C4COC4)CC3)C2)C1` (single isomer, unassigned) [2-47 Isomer 2], the EC50 in assay [1] is 0.398 µM; in assay [2], 0.501 µM; in assay [3], 1.26 µM; in assay [4] (setting [5]) it was 0.0631 µM. Further, the Emax in assay [1] stood at 113%; in assay [2], 29%; in assay [3] it was 63%; in assay [4] (phospho-ERK1/2) it was 90%.
